In article PMC8279417 (Journal of Medicinal Chemistry, 2021):
Where two headings read alike, the source gives them in different places.

Key:
ERα [1] = target: T1, ERα (Homo sapiens, UniProt P03372); assay: In-Cell Western immunoassay, ERα levels in MCF-7 cells; assay type: cell-based; details: for % ERα remaining [1 μM]: MCF-7 cells, 24 h, compared to the solvent control (DMSO)
T1 sequence (P03372 1-595): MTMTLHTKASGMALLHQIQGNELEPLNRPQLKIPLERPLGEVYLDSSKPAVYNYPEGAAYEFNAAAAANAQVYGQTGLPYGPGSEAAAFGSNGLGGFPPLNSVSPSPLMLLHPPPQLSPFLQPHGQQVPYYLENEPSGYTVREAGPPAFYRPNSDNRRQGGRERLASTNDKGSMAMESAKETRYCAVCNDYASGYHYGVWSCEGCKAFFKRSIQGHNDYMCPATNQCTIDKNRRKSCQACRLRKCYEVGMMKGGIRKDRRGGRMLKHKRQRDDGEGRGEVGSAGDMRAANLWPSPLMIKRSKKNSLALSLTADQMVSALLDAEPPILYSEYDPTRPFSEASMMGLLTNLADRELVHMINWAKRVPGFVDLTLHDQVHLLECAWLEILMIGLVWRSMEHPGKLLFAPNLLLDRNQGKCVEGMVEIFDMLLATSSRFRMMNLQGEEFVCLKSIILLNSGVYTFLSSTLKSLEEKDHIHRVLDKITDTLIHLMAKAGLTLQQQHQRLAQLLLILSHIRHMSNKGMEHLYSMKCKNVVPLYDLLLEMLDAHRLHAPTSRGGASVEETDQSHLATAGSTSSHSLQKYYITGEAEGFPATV
Method: Degradation was evaluated with the CellTagTM 700 In-Cell Western kit (LI-COR, Lincoln) according to the manufacturer’s protocol. MCF-7 cells were treated, and calculation was performed as previously described.[24]

MDA-MB-231 cells = assay: Crystal violet assay, MDA-MB-231 cells; assay type: cell-based
ERβ [2] = target: T2, ERβ (Homo sapiens, UniProt Q92731); details: for IC50: read-out: TR-FRET ERβ IC50, displacement of fluorescent-labeled E2 from the LBD of ERβ; for RBA ERβ: relative binding affinity compared to E2 (100%)
Target sequence in this assay (Q92731 264-498 limits assumed): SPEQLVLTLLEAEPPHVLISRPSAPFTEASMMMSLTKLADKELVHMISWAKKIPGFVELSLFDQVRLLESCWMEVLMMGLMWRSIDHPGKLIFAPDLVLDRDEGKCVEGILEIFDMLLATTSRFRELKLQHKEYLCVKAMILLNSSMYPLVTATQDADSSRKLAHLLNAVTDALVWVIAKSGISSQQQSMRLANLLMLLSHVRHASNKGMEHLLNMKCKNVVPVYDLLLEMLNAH
Method: (§1) LanthaScreen TR-FRET ER alpha/beta competitive binding assays (Invitrogen, Carlsbad) were used to investigate the binding affinity to the isolated receptors according to the manufacturer′s protocols. Measurement was performed with an Enspire multimode plate reader (PerkinElmer Life Sciences, Waltham). Calculations were performed with Excel (Microsoft, Redmond) and GraphPad Prism (GraphPad Software, San Diego).

MCF-7 cells = assay: Cellular uptake into MCF-7 cells (fluorometry, related to protein content); assay type: in vitro ADME; details: 10 μM, after 4 h (saturation), nmol compound/mg protein
Method: (§2) The compounds were incubated at a concentration of 10 μM with either MCF-7 or COS-7 cells, and the intracellular amount, determined by fluorometry, was related to the protein content.[42]
(§3) The determination of the cellular uptake in MCF-7 and COS-7 cells was performed as already described.[24] Measurement was conducted with the Enspire multimode plate reader.

MCF-7TamR cells = assay: Crystal violet assay, MCF-7TamR cells; assay type: cell-based
ERβ [3] = target: T2, ERβ; assay: Luciferase reporter gene assay (transactivation), U2OS cells transfected with pSG5-ERβ; assay type: cell-based; details: inhibition of E2-induced (0.3 nM) transactivation
Target sequence in this assay (Q92731 whole entry, the tested form may be a part): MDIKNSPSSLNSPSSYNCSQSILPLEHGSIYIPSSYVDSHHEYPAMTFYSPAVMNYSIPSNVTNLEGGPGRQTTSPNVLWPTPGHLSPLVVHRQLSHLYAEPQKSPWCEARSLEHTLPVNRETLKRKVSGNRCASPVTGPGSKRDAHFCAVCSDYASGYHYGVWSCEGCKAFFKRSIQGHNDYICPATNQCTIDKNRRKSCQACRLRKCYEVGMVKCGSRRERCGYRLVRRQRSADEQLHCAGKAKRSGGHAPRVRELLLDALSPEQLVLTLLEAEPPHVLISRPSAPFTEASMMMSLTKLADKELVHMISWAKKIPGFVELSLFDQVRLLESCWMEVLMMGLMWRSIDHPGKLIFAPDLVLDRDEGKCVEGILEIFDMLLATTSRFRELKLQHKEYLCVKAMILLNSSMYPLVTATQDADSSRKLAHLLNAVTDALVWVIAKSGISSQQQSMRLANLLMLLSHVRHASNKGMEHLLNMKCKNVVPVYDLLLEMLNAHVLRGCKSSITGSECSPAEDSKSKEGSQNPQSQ

ERα [4] = target: T1, ERα; assay: Luciferase reporter gene assay (transactivation), U2OS cells transfected with pSG5-ERα; assay type: cell-based; details: inhibition of E2-induced (0.03 nM) transactivation
COS-7 cells = assay: Cellular uptake into COS-7 cells (fluorometry, related to protein content); assay type: in vitro ADME, African green monkey; details: 10 μM, after 4 h, nmol compound/mg protein
Method: as §2, §3

ERα [5] = target: T3, ERα (Homo sapiens, UniProt P03372); details: for IC50: read-out: TR-FRET ERα IC50, displacement of fluorescent-labeled E2 from the LBD of ERα; for RBA ERα: relative binding affinity compared to E2 (100%)
T3 sequence (P03372 311-547 limits assumed): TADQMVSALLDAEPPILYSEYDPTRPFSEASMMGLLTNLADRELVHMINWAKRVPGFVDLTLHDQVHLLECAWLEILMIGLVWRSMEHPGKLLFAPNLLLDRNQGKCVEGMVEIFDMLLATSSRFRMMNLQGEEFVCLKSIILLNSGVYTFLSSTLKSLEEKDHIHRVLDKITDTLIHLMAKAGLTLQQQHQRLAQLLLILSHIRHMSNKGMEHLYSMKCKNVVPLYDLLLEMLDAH
Method: as §1

[6] = 0.5 mM, methanol/2× PBS (75:25), 37 °C, 72 h
From the text: For the interpretation of the biological results, it is necessary to obtain information about the isomerization by simulating physiological conditions.

ERβ [7] = target: T2, ERβ; details: 3 μM, incubation time 30 min, E2 34 nM
Target sequence in this assay (Q92731 whole entry, the tested form may be a part): as the sequence (Q92731 whole entry, the tested form may be a part) above

ERα [8] = target: T3, ERα; assay: TR-FRET coactivator (PGC-1 peptide) recruitment assay, ERα LBD; assay type: biochemical; details: E2 4 nM
Method: drug concentrations: 5 nM to 3 μM) after an incubation time of 10 or 30 min.
Coactivator recruitment was tested using the LanthaScreen® TR-FRET ERα coactivator assay. The binding
of the fluorescein-labeled PGC1a coactivator peptide to the ERα LBD protein labeled with terbium was

[9] = MCF7, read-out: % efficacy [1 μM], downregulation of ERα compared to fulvestrant (100%), MCF-7, 1 μM

SMILES | Emax at 1 µM (ERα [1]; [9]) | T/Ccorr MDA-MB-231 (MDA-MB-231 cells) | IC50 (ERβ [2]) | RBA ERβ (ERβ [2]) | cellular uptake, MCF-7 cells (MCF-7 cells) | T/Ccorr MCF-7TamR (MCF-7TamR cells) | IC50 (ERβ [3]) | IC50 (ERα [4]) | cellular uptake, COS-7 cells (COS-7 cells) | IC50 (ERα [5]) | RBA ERα (ERα [5]) | amount of the E isomer [6] | % ERα remaining [1 μM] (ERα [1]) | % efficacy [1 μM] (ERα [1]; downregulation of ERα compared to fulvestrant (100%), MCF-7, 1 μM) | Emax at 1 µM (ERα [1]; MCF7, read-out: % efficacy [1 μM]) | repression of PGC1 binding at ERβ (ERβ [7]) | reduction of PGC-1 binding at ERα (ERα [8]; 1 μM, after 10 min of incubation) | coactivator binding (ERα [8]; 5 μM, after 30 min, ERα)
CCC(=C(c1ccc(O)cc1)c1ccc(/C=C/C(=O)NCCCNC(=O)CCCn2c(=S)[nH]c3ccccc3c2=O)cc1)c1ccccc1 (mixture of isomers) [Compound 15] | 60% | 20% | 0.0126 ± 0.0048 µM | 5.9% | 2.8 nmol/mg | about 40% | 0.0041 ± 0.0006 µM | 0.0302 ± 0.0143 µM | 1.6 nmol/mg | 0.00401 ± 0.0019 µM | 8.2% |  |  |  |  |  |  | 
CCC(=C(c1ccc(O)cc1)c1ccc(/C=C/C(=O)NCCCNC(=O)c2ccc(N3CCN(C(=O)CCCn4c(=S)[nH]c5ccccc5c4=O)CC3)cc2)cc1)c1ccccc1 (mixture of isomers) [Compound 17] | 94.5% |  | 0.0185 ± 0.0048 µM | 4% |  | about 40% | 0.048 ± 0.012 µM | 0.104 ± 0.014 µM |  | 0.00463 ± 0.00174 µM | 7.1% | 25% | 5.5 ± 5.0% | 95% |  |  |  | 
CCC(=C(c1ccc(O)cc1)c1ccc(/C=C/C(=O)O)cc1)c1ccccc1 (mixture of isomers) [GW7604, (E/Z)-3-(4-((E)-1-(4-Hydroxyphenyl)-2-phenylbut-1-enyl)phenyl)acrylic acid, reference compound] |  |  |  | 27.1% |  | 68% |  |  |  |  |  |  | 44.3 ± 12.1% |  | 56% | complete repression | completely reduced | 45%
